Source: patent publication US20220062228A1, “USE OF CARNOSOL FOR INCREASING MUSCLE PROTEIN SYNTHESIS” (Centre National De La Recherche Scientifique, priority 2018, published 2022)
Structures can show the parent of a compound that is named as a salt.

Legend:
[1] = test system: human myotubes; test: culture cell model of human skeletal muscle satellite cells: area of myotubes (troponin T immunofluorescence, Image J); assay type: cell-based; conditions: for hypertrophic activity on myotubes, comparison with antioxidant compounds: FIG. 8; for hypertrophic activity on myotubes, carnosol compared with carnosic acid: 1 μg/ml and 5 μg/ml, FIG. 9; for hypertrophic activity on myotubes (area of myotubes) / concentration from which hypertrophic activity is exhibited: myotubes from young human subjects; for hypertrophic activity on myotubes (area of myotubes): 5 μg/ml, FIG. 3; for concentration from which hypertrophic activity is exhibited: FIG. 4
Text: (§1) In order to assay the hypertrophic effect on muscle of compounds from vegetal extracts, the inventors have designed a culture cell model of human skeletal muscle satellite cells. The skeletal muscle satellite cells are able to proliferate and to differentiate ex vivo. When cultured in a growth factors rich medium, the skeletal muscle satellite cells proliferate in the form of myoblasts. At confluence, the myoblasts morphologically differentiate by fusing thereby producing long multinucleated cells (myotubes or myofibers) which express muscular protein. Myotubes are able to respond to hypertrophic and atrophic signals by modulating the balance between the protein synthesis (hypertrophy) or the protein degradation (atrophy) (El Haddad M. et al., Cell Mol Life Sci. 2017 May; 74(10):1923-1936).
The recovered skeletal muscle satellite cells used in the culture cell model by the inventors were recovered from a muscular biopsy of young and elderly subjects.
The satellite cells can be easily recovered from a muscle biopsy and cultured ex vivo in dishes where they proliferate as myoblasts and differentiate into myotubes. The biopsy is treated according to an experimental protocol described and validated by us for human skeletal muscle from quadriceps (Kitzmann et al., 2006; El Haddad et al 2017). The biopsy is cut into a fragment of 1 mm^3 and placed in a culture dish treated with type 1 collagen. The explants are trapped inside in a thin layer of Matrigel (BD Matrigel Matrix, BD Biosciences) in 35 mm-collagen coated Petri dishes with growth media (DMEM/F12, supplemented with 10% fetal bovine serum, 0.1% Ultroser G, 1 ng/ml basic FGF, and 10 microg/mL gentamicin). After 6 to 8 days, when cells migrate out of the explants, they are enzymatically harvested using dispase (BD Biosciences) and subcultured in growth medium. Harvested cells are purified by immunomagnetic cell sorting using magnetic activated cell sorter (MACS) microbeads (MiltenyiBiotec) coupled to an antibody against CD56. Usually in protocols of muscle culture cells, muscle differentiation is induced by growing confluent myoblasts in differentiation medium depleted of growth factors. At confluence, myoblasts start to differentiate and differentiation can be evidenced 1) morphologically (after 2 to 4 days), as the fusion of myoblasts generates long giant multinucleated cells (named myotubes) and 2) biochemically, as myotubes express proteins required for muscle contraction. Differentiation is assessed by immunofluorescence using the antibodies against Troponin T and Myogenin, two markers of muscle differentiation. The differentiation status is also confirmed by precisely measuring the expression of three differentiation markers (Myogenin, Sarcomeric Actin and Caveolin by RT-qPCR). Expression of RPLP0 is also quantified as internal control.
Briefly, myoblasts are seeded at 10^5 cells/dish onto 35 mm collagen-coated dishes and cultured in growth medium (DMEM/F12, supplemented with 10% fetal bovine serum, 0.1% Ultroser G, 1 ng/ml basic FGF, and 10 microg/ml gentamicin). Myogenic differentiation of confluent cells was induced after 3 days by changing to DMEM containing 5% FBS (differentiation medium). Cells were kept in differentiation medium for 3 to 4 days.
Then the cells are fixed and the expression of troponin T (a protein of the cytoskeleton which is exclusively expressed by myotubes) is analysed by immuno-fluorescence. Then the area of myotubes is measured using the Image J software. If the area increases the compound has a hypertrophic activity and if the area decreases the compound has an atrophic activity.
The skeletal muscle satellite cells came from young people (aged under 30).

[2] = test system: NRF2 pathway; test: induction of the NRF2 pathway (NRF2, HO-1) in skeletal muscle cells; assay type: cell-based; conditions: for NRF2 accumulation / full activation of NRF2 pathway by inducing HO-1: skeletal muscle, 6 μM
Text: The regulation of Nrf2 signaling is believed to preserve redox homeostasis and protect the structure and function of skeletal muscle. Nrf2 is a transcription factor, inactivated by Keap-1 in the cytoplasm. Upon activation, Keap1 is degraded, and NRF2 mediates intracellular antioxidant response by binding to the antioxidant response element (ARE) in the promoter of its target genes and induces the expression of a set of antioxidant enzymes, called ‘phase 2 enzymes,’ including heme oxygenase-1 (HO-1). Recently it has been shown that Nrf2 deficiency caused accelerated aging and muscle loss during aging.
Since carnosic acid and carnosol are antioxidants molecules and can activate the NRF2 pathway in several type of cells, it was studied whether carnosic acid and carnosol are capable of inducing NRF2 pathway in skeletal muscle.
In order to know whether NRF2 pathway activation is sufficient to activate hypertrophy in skeletal muscle cells. An assay with DMF (dimethyl Fumarate) has been carried out. Given DMF is a NRF2 activator, if the NRF2 pathway activation is sufficient to activate hypertrophy in skeletal muscle cells then DMF should induce myotube hypertrophy.

[3] = test system: MuRF1; test: western blot of MuRF1 in myotubes / skeletal muscle cells; assay type: cell-based, human
Text: The muscle protein degradation may be measured by assaying the level of expression of an ubiquitin ligases such as muscle RING-finger protein-1 (MuRF1).

[4] = test system: myotube cells from elderly subject; test: culture cell model with skeletal muscle satellite cells recovered from elderly subjects: area of myotubes; assay type: cell-based, human; conditions: elderly subjects 1 and 2; carnosol 2 μg/ml; FIG. 5
Text: as §1, with “74(10):1923-1936). […]” for “74(10):1923-1936).”
The satellite cells can be easily recovered from a muscle biopsy and cultured ex vivo in dishes where they proliferate as myoblasts and differentiate into myotubes. […] Differentiation is assessed by immunofluorescence using the antibodies against Troponin T and Myogenin, two markers of muscle differentiation. […] Expression of RPLP0 is also quantified as internal control. […]
Then the cells are fixed and the expression of troponin T (a protein of the cytoskeleton which is exclusively expressed by myotubes) is analysed by immuno-fluorescence. Then the area of myotubes is measured using the Image J software. […]

[5] = test system: mTOR pathway; test: western blot of signaling pathways controlling muscle hypertrophy in myotubes; assay type: cell-based, human; conditions: FIG. 14
Text: Two main pathways control the regeneration of contractile proteins: • PI3K/Akt/mTOR which is the major pathway of muscle hypertrophy and • pathway of the transcription factors of FOXO family which controls the expression of the genes involved in the proteasome degradation systems and the autophagy (respectively atrogenes and genes of the autophagy).
At the molecular level, it has been established that the activation of the PI3K/Akt/mTOR pathway stimulates the protein synthesis through their anabolizing targets (mTOR, protein S6 kinase 1 (S6K) and the eIF4E-binding proteins (4E-BP) and blocks the ubiquitine E3 of the family of atrogenes MuRF1 and MAFbx mediated proteolysis pathway (FOXO) (Egerman and Glass, Signaling pathways controlling skeletal muscle mass. Crit Rev Biochem Mol Biol. 2014 January-February; 49(1):59-68).

[6] = test system: MURF1 protein; test: western blot analysis on muscle extract for MURF1 protein; assay type: in vivo; conditions: adult C57 BL6 J mice, daily oral dose of 80 mg/Kg for 12 days; FIG. 7
Description: (§2) Hypertrophic Activity of Carnosol In Vivo To investigate whether carnosol can alter skeletal muscle physiology, adult mice (13 weeks old, C57 BL6 J) were treated for 12 days with a daily oral dose of 80 mg/Kg. […] The determination of the fibre areas (CSA) was made using the Myovision software.
Then, a western blot analysis on muscle extract was performed to determine the impact of a carnosol treatment on MURF1 protein.

[7] = test system: gastrocnemius muscle; test: fibre areas (CSA) of gastrocnemius muscle sections, anti-dystrophin staining, Myovision; assay type: in vivo; conditions: adult C57 BL6 J mice, daily oral dose of 80 mg/Kg for 12 days; FIG. 6
Description: as §2

[8] = test system: protein synthesis in myotubes; test: SUnSET puromycin incorporation western blot (protein synthesis) in the culture cell model; assay type: cell-based, human; conditions: myotubes stimulated with carnosol, puromycin 30 minutes before recovery; FIG. 13
Description: The synthesis of muscle protein may be measured in vitro by the method disclosed in Schmidt et al., SUnSET, a nonradioactive method to monitor protein synthesis, Nat Methods. 2009 April; 6(4):275-7. Muscle cells were treated with puromycin, 30 minutes before recovering the protein from the cells. Then, a western blot is carried out with anti-puromycin antibodies in order to show the translation rate of the mRNA in the living cells.
The muscular hypertrophic activity of carnosol may result from a global increase of the synthesis of proteins. To study this hypothesis, the culture cell model disclosed above was stimulated with carnosol. Then, 30 minutes before recovering the protein from the cells, the cells were treated with puromycin. The puromycin is incorporated in the neo-synthetized proteins. Then, a western blot was carried out with anti-puromycin antibodies in order to show the translation rate of the mRNA in the living cells (Schmidt et al., SUnSET, a nonradioactive method to monitor protein synthesis. Nat Methods. 2009; 6:275-277) (see FIG. 13).

For `O=C1O[C@H]([C@@H](O)CO)C(O)=C1O` [vitamin C, ascorbic acid, reference compound], the “hypertrophic activity on myotubes, comparison with antioxidant compounds” value ([1]; 50 μg/ml) was “only carnosol has a significant hypertrophic activity”.

With `COC(=O)/C=C/C(=O)OC` [DMF, dimethyl Fumarate, reference compound] the “dose from which the NRF2 pathway is induced” value ([2]; skeletal muscle cells) was over 20 µM, the “induction of the NRF2 pathway (NRF2 and HO-1)” value ([2]; skeletal muscle cells) was “induces the NRF2 pathway” and the myotube hypertrophy ([1]; 50 μM, FIG. 15) was “does not induce repression of MURF1 protein and myotube hypertrophy”. For the same molecule, the “repression of MURF1 protein” value ([3]; skeletal muscle cells, DMF treatment versus carnosol treatment) was “does not induce repression of MURF1 protein”.

For `CC(C)(O)CC(=O)O` [β-hydroxy-β-methylbutyrate, reference compound], the myotube hypertrophy ([1]; human myotubes treated 48 hours, 25 μM and 100 μM, FIG. 11) was “only carnosol treatment induced myotube hypertrophy”.

In the case of `CC(C)c1cc2c(c(O)c1O)[C@@]1(C(=O)O)CCCC(C)(C)[C@@H]1CC2` [carnosic acid, reference compound], the NRF2 accumulation [2] is reported as “both induce NRF2 accumulation”, the “full activation of NRF2 pathway by inducing HO-1” value [2] is reported as “only carnosol fully activates NRF2 pathway by inducing HO-1” and the “hypertrophic activity on myotubes, carnosol compared with carnosic acid” value [1] is reported as “the hypertrophic activity of carnosol is significantly higher than the one of carnosic acid”. The “hypertrophic activity on myotubes, comparison with antioxidant compounds” value ([1]; 2 μg/ml) was “only carnosol has a significant hypertrophic activity”.

For `C[C@H]1[C@H](C)CC[C@]2(C(=O)O)CC[C@]3(C)C(=CC[C@@H]4[C@@]5(C)CC[C@H](O)C(C)(C)[C@@H]5CC[C@]43C)[C@H]12` [ursolic acid, reference compound], the “hypertrophic activity on myotubes, comparison with antioxidant compounds” value ([1]; 2 μg/ml) was “only carnosol has a significant hypertrophic activity”.

vitamin D [reference compound] was tested, and the myotube hypertrophy ([1]; human myotubes treated 48 hours, 10^−7M, FIG. 12) was “Only carnosol induced myotube hypertrophy”.

For `CC(C)C[C@H](N)C(=O)O` [leucine, reference compound], the myotube hypertrophy ([1]; human myotubes treated 48 hours, 5 mM, FIG. 10) was “only carnosol treatment induced myotube hypertrophy”.

`CC(C)c1cc2c(c(O)c1O)[C@@]13CCCC(C)(C)[C@@H]1C[C@@H]2OC3=O` [carnosol, Carnosol] was tested, and the “dose from which the NRF2 pathway is induced” value ([2]; skeletal muscle cells) was at least 3 µM, the NRF2 accumulation [2] was “both induce NRF2 accumulation” and the “full activation of NRF2 pathway by inducing HO-1” value [2] was “only carnosol fully activates NRF2 pathway by inducing HO-1”. The “hypertrophic activity on myotubes, carnosol compared with carnosic acid” value [1] was “the hypertrophic activity of carnosol is significantly higher than the one of carnosic acid”, the “hypertrophic activity on myotubes, comparison with antioxidant compounds” value ([1]; 2 μg/ml) was “only carnosol has a significant hypertrophic activity” and the myotube hypertrophy ([1]; human myotubes treated 48 hours, 1 μg/ml, FIGS. 10-12) was “only carnosol treatment induced myotube hypertrophy”. The “hypertrophic activity on myotubes (area of myotubes)” value ([1]; listed as commercially available carnosol) was “same hypertrophic activity as the fraction C”, the “hypertrophic activity on myotubes (area of myotubes)” value ([1]; listed as fraction C) was “active compound was isolated in the fraction C” and the “concentration from which hypertrophic activity is exhibited” value ([1]; conversion of 0.5 μg/ml) was 1 to 2 µM. For the same molecule, the “concentration from which hypertrophic activity is exhibited” value ([1]; tested 0.25-5 μg/ml) was at least 0.5 µg/mL, the “hypertrophic activity on myotube cells of elderly subjects” value [4] was “has also a hypertrophic activity” and the “phosphorylation rate of 4EBP1 (p-4EBP1/4EPB1)” value [5] was “increasing the phosphorylation rate”. For the same molecule, the “phosphorylation rate of P70 S6 kinase (p-S6K/S6K)” value [5] was “increasing the phosphorylation rate”, the “phosphorylation rate of PS6 (p-S6/S6)” value [5] was “increasing the phosphorylation rate” and the “MuRF1 expression (degradation of proteins)” value ([3]; myotubes, western blot, FIG. 14) was “inhibits strongly the MuRF1 expression”. The “MURF1 protein level in gastrocnemius” value [6] was “down-regulates MURF1 protein level”, the “diameter of the fibers (fibre area, CSA) of the gastrocnemius” value [7] was “significantly increases the diameter of the fibers” and the “synthesis of protein in muscle cells (puromycin incorporation)” value [8] was “stimulates the synthesis of protein in muscle cells”.

With `O=C(/C=C/c1ccc(O)c(O)c1)O[C@H](Cc1ccc(O)c(O)c1)C(=O)O` [rosmarinic acid, reference compound] the “hypertrophic activity on myotubes, comparison with antioxidant compounds” value ([1]; 2 μg/ml) was “only carnosol has a significant hypertrophic activity”.
